These results are taken from US20060135403A1, “Therapeutic formulations for the treatment of beta-amyloid related diseases” (priority 2002, published 2006).

Counter-ions that a name gives are not always drawn. Like-named read-outs stand apart in the source and are kept apart here.

For one assay, the target named is T1, Aβ1-40 (Homo sapiens, UniProt P05067).
T1 construct: 20 μM of solubilized Aβ40
Briefly: Mass spectroscopy (MS) binding assay. Also on record: key: “+++” indicates strong binding; “++” indicates moderate binding; “+” indicates weak binding; “−” indicates no detectable binding. To be noted: 200 μM test compound, 20 μM solubilized Aβ40, 20% ethanol, pH 7.4. The procedure: Test compounds were purchased from commercial sources or synthesized and screened by mass spectroscopy (“MS”) assays. The MS assay gives data on the ability of compounds to bind to an amyloid.
In the mass spectroscopy (“MS”) assay, samples were prepared as aqueous solutions containing 20% ethanol, 200 μM of a test compound and 20 μM of solubilized Aβ40. The pH value of each sample was adjusted to 7.4 (±0.2) by addition of 0.1% aqueous sodium hydroxide. The solutions were then analyzed by electrospray ionization mass spectroscopy using a Waters ZQ 4000 mass spectrometer. Samples were introduced by direct infusion at a flow-rate of […] within 2 hours after sample preparation. The source temperature was kept at 70° C. and the cone voltage was 20 V for all the analysis. Data were processed using Masslynx 3.5 software. The MS assay gives data on the ability of compounds to bind to Aβ, whereas the ThT, EM and CD assays give data on inhibition of fibrillogenesis. “+++” indicates strong binding; “++” indicates moderate binding; “+” indicates weak binding; “−” indicates no detectable binding; and entries left blank were not determined.

In assay [1] the test system is Aβ. To be noted: PDAPP, cited from earlier work.
Assay [2] concerns Aβ. To be noted: cited from earlier work.
Target sequence in this assay (P05067 672-711 limits assumed): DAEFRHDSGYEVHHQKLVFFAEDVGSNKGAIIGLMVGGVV
Assay [3] relates to Aβ. The following applies: cited from earlier work. This is another data set of the same source.
The test system of assay [4] is Aβ. To be noted: TgCRND8, IP; cited from earlier work.
The target of assay [5] is T2, Aβ (Homo sapiens, UniProt P05067).
T2 construct: the amyloid-β peptide (Aβ), a 39-43 amino acid protein that is produced through cleavage of the β-amyloid precursor protein (APP); host or cells: brains of transgenic mice (PDAPP, Tg2576, Tg2576+PS1, TgCRND8, TgAPPswe)
To be noted: TgAPPswe, IP; cited from earlier work.

T1 sequence (P05067 672-711 limits assumed): as above

On to `CCCC(CO)NCCCS(=O)(=O)O` (racemic) [CA, 3-[(dl)-1-hydroxy-2-pentyl]amino-1-propanesulfonic acid], for which the “MS Binding Aβ1-40” value at Aβ1-40 is recorded as “+++”.

Take `O=C(NCC(O)CS(=O)(=O)[O-])OCc1ccccc1.[Na+]` (centres unmarked) [AC, N-benzyloxycarbonyl-3-amino-2-hydroxy-1-propanesulfonic acid sodium salt monohydrate]: the “MS Binding Aβ1-40” value on Aβ1-40 is on record as “+”.

For `O=C(NCCCCS(=O)(=O)[O-])OCc1ccccc1.[Na+]` [AD, N-benzyloxycarbonyl-4-amino-1-butanesulfonic acid sodium salt monohydrate], the “MS Binding Aβ1-40” value on Aβ1-40 is “+”.

For the compound `O=C(NCCCS(=O)(=O)[O-])OCc1ccccc1.[Na+]` [AE, N-benzyloxycarbonyl-3-amino-1-propanesulfonic acid sodium salt monohydrate], the “MS Binding Aβ1-40” value on Aβ1-40 was “+”.

Consider `O=C(NCCCS(=O)(=O)O)NC(c1ccccc1)c1ccccc1` [AF, 3-{[(benzhydrylamino)carbonyl]amino}-1-propanesulfanic acid], for which the “MS Binding Aβ1-40” value at Aβ1-40 is recorded as “+”.

`O=C(Cc1ccccc1)NCCCS(=O)(=O)[O-].[Na+]` [AG, 3-[(phenylacetyl)amino]-1-propanesulfonic acid, sodium salt]: the “MS Binding Aβ1-40” value on Aβ1-40 is listed as “+”.

Consider `O=C(NCCCS(=O)(=O)[O-])NCc1ccccc1.[Na+]` [AH, 3-{[(benzylamino)carbonyl]amino}-1-propanesulfonic acid, sodium salt], for which, on Aβ1-40, the “MS Binding Aβ1-40” value is recorded as “+”.

As for `CC(C)Cc1ccc(C(C)C(=O)NCCCS(=O)(=O)[O-])cc1.[Na+]` (centres unmarked) [AL, 3-{[2-(4-isobutylphenyl)propanoyl]amino}-1-propanesulfonic acid, sodium salt], the “MS Binding Aβ1-40” value on Aβ1-40 was “++”.

With `O=S(=O)([O-])CCCNC(=S)NCc1ccccc1.[Na+]` [AM, 3-{[(benzylamino)carbonothioyl]amino}-1-propanesulfonic acid sodium salt], the “MS Binding Aβ1-40” value at Aβ1-40 was “+”.

As for `C[n+]1cccc(C(=O)NCCCS(=O)(=O)[O-])c1` [AN, 3-((N-methylnicotlnoyl)amino)-1-propanesulfonic acid, inner salt], the “MS Binding Aβ1-40” value at Aβ1-40 is reported as “−”.

`O=S(=O)(O)CCCNCc1ccc2c(c1)OCO2` [AW, 3-[((1,3-benzodioxol-5-yl)methyl)amino]-1-propanesulfonic acid]: the “MS Binding Aβ1-40” value at Aβ1-40 is “++”.

For `COc1ccc(CNCCCS(=O)(=O)O)cc1OC` [AX, 3-(3,4-dimethoxybenzylamino)-1-propanesulfonic acid], the “MS Binding Aβ1-40” value at Aβ1-40 is “+++”.

On to `COc1cc(CNCCCS(=O)(=O)O)cc(OC)c1OC` [AY, 3-(3,4,5-trimethoxybenzylamino)-1-propanesulfonic acid], for which the “MS Binding Aβ1-40” value on Aβ1-40 is recorded as “++”.

With `COc1cccc(CNCCCS(=O)(=O)O)c1OC` [AZ, 3-(2,3-dimethoxybenzylamino)-1-propanesulfonic acid], the “MS Binding Aβ1-40” value on Aβ1-40 is recorded as “++”.

On to `COc1cc(CNCCCS(=O)(=O)O)cc(OC)c1` [BA, 3-(3,5-dimethoxybenzylamino)-1-propanesulfonic acid], for which the “MS Binding Aβ1-40” value on Aβ1-40 is on record as “+++”.

Consider `COc1ccc(CNCCCS(=O)(=O)O)c(OC)c1` [BB, 3-(2,4-dimethoxybenzylamino)-1-propanesulfonic acid], for which, at Aβ1-40, the “MS Binding Aβ1-40” value was “+++”.

Regarding `O=S(=O)(O)CCCNCc1ccc(O)c(O)c1` [BC, 3-(3,4-dihydroxybenzylamino)-1-propanesulfonic acid], on Aβ1-40, the “MS Binding Aβ1-40” value was “+”.

As to `NCCNS(=O)(=O)[O-].[Na+]` [BI], the “MS Binding Aβ1-40” value at Aβ1-40 is listed as “+”.

Regarding `O=S(=O)(O)CCCNCCc1c[nH]c2ccccc12` [BT, 3-{[2-(3-indolyl)ethyl]-amino}-1-propanesulfonic acid], the “MS Binding Aβ1-40” value at Aβ1-40 was “+++”.

Take `O=S(=O)(O)CCCNC1CCCc2ccccc21` (centres unmarked) [BU, 3-(1,2,3,4-tetrahydro-1-naphthylamino)-1-propanesulfonic acid]: the “MS Binding Aβ1-40” value at Aβ1-40 is given as “+++”.

Turning to `CCNCCCS(=O)(=O)O` [BV, 3-(ethylamino)-1-propanesulfonic acid], on Aβ1-40, the “MS Binding Aβ1-40” value is “+++”.

For `O=S(=O)(O)CCCNC12CC3CC(CC(C3)C1)C2` [BW, 3-(1-adamantyl)amino-1-propanesulfonic acid], the “MS Binding Aβ1-40” value at Aβ1-40 is “+++”.

With `CC(C)(C)NCCCS(=O)(=O)O` [BX, 3-(t-butyl)amino-1-propanesulfonic acid], on Aβ1-40, the “MS Binding Aβ1-40” value is “+++”.

For `O=S(=O)(O)CCCNC1CC2CCC1C2` (centres unmarked) [BY, 3-(2-norbornyl)amino-1-propanesulfonic acid], the “MS Binding Aβ1-40” value on Aβ1-40 is “+++”.

As for `O=S(=O)(O)CCCNC1C2CC3CC(C2)CC1C3` (centres unmarked) [BZ, 3-(2-adamantyl)amino-1-propanesulfonic acid], the “MS Binding Aβ1-40” value on Aβ1-40 was “+++”.

Take `NCCCCS(=O)(=O)O` [CB, 4-amino-1-butanesulfonic acid]: the “MS Binding Aβ1-40” value at Aβ1-40 is listed as “++”.

As to `N=C(N)SCCCS(=O)(=O)O` [CP, 3-(amidinothio)-1-propanesulfonic acid], the “MS Binding Aβ1-40” value at Aβ1-40 is given as “+”.

In the case of `O=S(=O)(O)CCCN1CC=C(CCCc2ccccc2)CC1` [D, 4-(3-phenylpropyl)-1-sulfopropyl-2,3,6-tetrahydropyridine], on Aβ1-40, the “MS Binding Aβ1-40” value was “+”.

Consider `O=S(=O)([O-])CCCC[n+]1ccc(C2CC=CCC2)cc1` (centres unmarked) [T, 4-(4-cyclohex-3-enylpyridyl) butanesulfonic acid, inner salt], for which, on Aβ1-40, the “MS Binding Aβ1-40” value is “+”.

For “Aβ40: Aβ40 peptide given orally or nasally as immunogen (Weiner 2000)”, in the assay on Aβ [1] (nasal), the “Change in Cerebral Levels: Amyloid Burden” value (from here on “Change … Amyloid Burden”) was −60% and the “Change in Cerebral Levels: Aβ, total Aβ levels” value (“Change … total Aβ levels” for short) is listed as “Total: −50%”. In the assay with Aβ [1] (oral), the “Change … Amyloid Burden” value is 0% and the “Change … total Aβ levels” value was “Total: 0%”.

Regarding Cholyl-LVFFA-OH, in the assay on Aβ [2], the anti-fibrillogenic activity entry is reported as “can act as an anti-fibrillogenic agent”.

Regarding “K6Aβ1-30: Aβ peptide immunogen of Sigurdsson 2001”, in the assay with Aβ [3] (Tg2576, SC), the “Change … Amyloid Burden” value is −85% and the “Change … total Aβ levels” value is “Total: −55%”.

Consider “fAβ42: fibrillar Aβ42 used for active immunization”, for which the “Change … Amyloid Burden” value with Aβ [4] is given as −50%; in the assay on Aβ [1] (IP) it was −95%; in the assay with Aβ [3] (Tg2576, IP) it was −85%; in the assay with Aβ [3] (Tg2576, SC), −80%. Also, in the assay with Aβ [5], the “Change in Cerebral Levels: Aβ, levels of Aβ40” value was 40: +100%;. Moreover, in the assay with Aβ [5], the “Change in Cerebral Levels: Aβ, levels of Aβ42” value is 42: 0%. Besides, the “Change … total Aβ levels” value in the assay on Aβ [1] (IP) was “Total: −80%”. The “Change in Cerebral Levels: Aβ” value in the assay with Aβ [3] (Tg2576, IP, Aβ species not specified) is reported as −70%.
